Results on 1 compound are retold here after US10526309B2, “Pan-TAM inhibitors and Mer/Axl dual inhibitors” (The University of North Carolina at Chapel Hill, priority 2015, dated 2020).

One assay deals with T1, Mer (Homo sapiens, UniProt Q12866).
T1 sequence (Q12866 21-999): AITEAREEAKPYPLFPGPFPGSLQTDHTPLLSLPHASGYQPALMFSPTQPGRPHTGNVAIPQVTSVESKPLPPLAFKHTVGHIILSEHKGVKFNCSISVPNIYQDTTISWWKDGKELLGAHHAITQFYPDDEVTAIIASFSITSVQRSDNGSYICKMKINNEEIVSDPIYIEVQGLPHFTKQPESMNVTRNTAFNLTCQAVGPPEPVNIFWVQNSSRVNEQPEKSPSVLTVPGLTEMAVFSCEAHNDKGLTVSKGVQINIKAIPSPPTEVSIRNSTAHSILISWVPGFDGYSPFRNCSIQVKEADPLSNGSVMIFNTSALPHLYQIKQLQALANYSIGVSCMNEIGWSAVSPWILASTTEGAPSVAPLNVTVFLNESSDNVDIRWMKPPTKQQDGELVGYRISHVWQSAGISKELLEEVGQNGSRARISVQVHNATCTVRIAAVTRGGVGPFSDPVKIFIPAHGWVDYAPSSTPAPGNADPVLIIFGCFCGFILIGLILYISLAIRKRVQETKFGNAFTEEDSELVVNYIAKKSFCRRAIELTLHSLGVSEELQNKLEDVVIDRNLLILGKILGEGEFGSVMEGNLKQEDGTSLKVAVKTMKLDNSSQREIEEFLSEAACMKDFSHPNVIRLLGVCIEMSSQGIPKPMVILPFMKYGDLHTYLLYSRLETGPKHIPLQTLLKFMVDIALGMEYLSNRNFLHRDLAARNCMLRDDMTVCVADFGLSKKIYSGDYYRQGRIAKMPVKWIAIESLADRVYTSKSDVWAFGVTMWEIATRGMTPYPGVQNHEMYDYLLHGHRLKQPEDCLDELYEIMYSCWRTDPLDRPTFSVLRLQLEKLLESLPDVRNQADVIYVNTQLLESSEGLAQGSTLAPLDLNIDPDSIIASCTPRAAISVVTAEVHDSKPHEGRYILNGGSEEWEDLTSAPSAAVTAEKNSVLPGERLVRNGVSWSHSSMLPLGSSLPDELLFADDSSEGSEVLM
Put plainly: Mer kinase inhibition IC50. In kind it is biochemical.

Another assay concerns the target T2, Axl (Homo sapiens, UniProt P30530).
T2 sequence (P30530 26-894): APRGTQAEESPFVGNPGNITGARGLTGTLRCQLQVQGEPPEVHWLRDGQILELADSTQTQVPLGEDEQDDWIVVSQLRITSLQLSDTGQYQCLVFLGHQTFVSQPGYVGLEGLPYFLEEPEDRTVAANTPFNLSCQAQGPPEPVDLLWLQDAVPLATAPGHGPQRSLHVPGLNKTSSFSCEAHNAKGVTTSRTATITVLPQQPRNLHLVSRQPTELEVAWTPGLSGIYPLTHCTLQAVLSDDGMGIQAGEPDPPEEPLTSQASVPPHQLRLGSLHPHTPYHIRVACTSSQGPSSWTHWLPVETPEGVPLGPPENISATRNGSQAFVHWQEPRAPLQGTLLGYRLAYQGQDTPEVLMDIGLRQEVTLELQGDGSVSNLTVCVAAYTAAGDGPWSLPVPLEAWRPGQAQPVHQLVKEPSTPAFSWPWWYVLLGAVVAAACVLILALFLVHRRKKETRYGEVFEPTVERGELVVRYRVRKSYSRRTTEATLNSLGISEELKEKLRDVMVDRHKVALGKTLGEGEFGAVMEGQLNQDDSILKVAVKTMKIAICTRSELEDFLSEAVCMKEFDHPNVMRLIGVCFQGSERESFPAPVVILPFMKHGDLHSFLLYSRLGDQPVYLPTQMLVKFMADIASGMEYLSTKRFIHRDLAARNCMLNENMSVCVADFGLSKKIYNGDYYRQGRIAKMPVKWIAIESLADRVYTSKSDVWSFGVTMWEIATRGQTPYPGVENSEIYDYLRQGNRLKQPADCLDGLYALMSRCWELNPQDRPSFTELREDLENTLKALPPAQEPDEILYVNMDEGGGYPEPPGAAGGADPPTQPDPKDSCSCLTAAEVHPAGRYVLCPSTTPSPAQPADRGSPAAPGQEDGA
Put plainly: Axl kinase inhibition IC50. In kind it is biochemical.

The target in another assay is T3, Tyro3 (Homo sapiens, UniProt Q06418).
T3 sequence (Q06418 41-890): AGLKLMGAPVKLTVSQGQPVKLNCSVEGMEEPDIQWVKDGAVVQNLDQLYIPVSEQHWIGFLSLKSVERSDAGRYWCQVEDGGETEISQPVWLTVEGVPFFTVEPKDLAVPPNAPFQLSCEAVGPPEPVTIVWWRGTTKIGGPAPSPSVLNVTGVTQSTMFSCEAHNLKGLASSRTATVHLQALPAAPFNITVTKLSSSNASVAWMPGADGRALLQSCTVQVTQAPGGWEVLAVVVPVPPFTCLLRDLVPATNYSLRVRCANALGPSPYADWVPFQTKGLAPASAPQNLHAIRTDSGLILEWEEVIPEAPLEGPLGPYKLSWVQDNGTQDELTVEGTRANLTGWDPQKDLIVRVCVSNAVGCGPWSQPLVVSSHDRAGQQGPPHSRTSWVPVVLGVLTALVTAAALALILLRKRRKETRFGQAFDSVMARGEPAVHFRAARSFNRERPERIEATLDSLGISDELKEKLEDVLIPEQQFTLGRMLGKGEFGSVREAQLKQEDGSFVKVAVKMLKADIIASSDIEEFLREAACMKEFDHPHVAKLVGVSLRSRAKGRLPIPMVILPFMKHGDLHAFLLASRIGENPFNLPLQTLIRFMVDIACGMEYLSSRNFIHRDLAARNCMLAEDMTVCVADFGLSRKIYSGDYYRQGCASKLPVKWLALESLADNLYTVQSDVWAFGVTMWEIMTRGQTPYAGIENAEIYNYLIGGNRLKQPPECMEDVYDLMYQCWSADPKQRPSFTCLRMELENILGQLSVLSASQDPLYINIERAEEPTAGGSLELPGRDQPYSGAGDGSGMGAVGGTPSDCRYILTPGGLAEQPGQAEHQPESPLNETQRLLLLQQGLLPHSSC
As to the kind of experiment: Tyro3 kinase inhibition IC50. In kind it is biochemical. The settings on record: read-out: Tyro3 IC50.

Another assay concerns MDA-MB-231 cells. Put plainly: Invasion of MDA-MB-231 multicellular tumor spheroids in 3D collagen matrix. The conditions noted are these: MDA-MB-231 spheroids, 24 hours in collagen culture; in comparison to UNC1653, UNC2025, UNC2250. In kind it is cell-based. An excerpt:
The invasion of triple negative highly aggressive breast adenocarcinoma cells (MDA-MB-231) cultured as multicellular tumor spheroids (MTSs) in a 3D collagen matrix was examined.

The structures appear in SMILES notation. Read-outs that look alike come from different tables or passages of the source. A value given as a limit tells only on which side of the number the result lay.

What is called IC50 is the concentration that gives 50% inhibition. As for `O[C@H]1CC[C@H](Nc2nc(Nc3ccccc3)ncc2-c2ccc(CN3CCCC3)cn2)CC1` [UNC4198A], the IC50 at Mer (Example 6, read-out: MerTK IC50) is 0.98 nM; at Mer (Table 1, read-out: Mer IC50) it was < 10 nM; at Axl (Example 6), 5.5 nM; on Axl (Table 1), < 10 nM; on Tyro3 (Example 6) it was 0.56 nM; on Tyro3 (Table 1) it was < 10 nM. Further, the levels of invasion result in the assay on MDA-MB-231 cells is “decreased levels of invasion”.
